Assay results taken from patent US20090321255A1, “Drug-meter: Multiwell membrane-based potentiometric sensor for high throughput tests of drugs” (priority 2008, published 2009).
Structures can show the parent of a compound that is named as a salt.

Tests used:
[1] = Transmembrane potential calibration of multiwell biomimetic membrane sensor in buffer; assay type: physicochemical; settings: pH 8
Description: Multiwell plates used were commercial Millipore MultiScreen VM 0.05μ plates with nitrocellulose ultrafilters located at the base of each of the 96 wells of a plate. Though the number of the wells in the examples given in the disclosure is 96, as it is in the usual multiwell plates, it is not limited by this number and can be any from 2 and above.
All filters were impregnated by isopropyl myristate or some other lipid-like substances, like long chain fatty acids, their methyl and ethyl-esters, fats, etc. After impregnation the membranes should be translucent.
Each well requires as little as 200 μl of test solution. The small well's volume and the numerous wells (96) make the plates highly suitable as a part of the drug sensor, both for pharmaceutical testing in a buffer as well as for testing in biological fluids.
The tray cover can be is used as a base tray to put the reference buffer solution. Two Ag/AgCl electrodes with the salt bridges were used to measure transmembrane potential with common multimeter. It is possible to use one Ag/AgCl element as a measuring electrode and move it from one well to another. Another option is to have different measuring electrodes in different wells and separately to collect signals from each of them separately.
Kinetics of the process was registered with electrochemical station GPES. […]

[2] = Kinetics of transmembrane potential decrease due to drug transport through the membrane; assay type: physicochemical
Protocol: Kinetics of the process was registered with electrochemical station GPES. 5 mM Potassium Dihydrogen Phosphate solution in water was used as a buffer, filling the tray with the volume ˜30 ml. Known concentration of a drug (usually near 10^−5 M) could be added in the buffer as the reference. Membrane resistance after impregnation was several megaohms and usually decreases after modification of the membrane with drugs. Resistance is much lower when the membrane is broken. In this case the measurements can be conducted in other wells with the same test solution.
Using electrochemical station and computer it is possible to measure potential continuously in time, and for example, to study drug transport through the membrane. In this case it is possible to have different drugs or different types of membranes in different wells.
The steady state potential can decrease in time if one waits at least several minutes due to the slow drug transport through the membrane. After the experiments the membrane could be washed, dried, reimpregnated and after preequilibration used again.
At higher concentrations of the drug after the transmembrane potential reaches its maximum value, it slowly decreases with time due to the transport of the drug (FIG. 6). At pH 8 characteristic time was of the order ˜20 s and increased at more acidic pH to ˜100 s.

albumin = albumin (Homo sapiens, UniProt P02768); experiment: Transmembrane potential calibration of the multiwell sensor in albumin solution; assay type: physicochemical
albumin, sequence (P02768 25-609, species assumed): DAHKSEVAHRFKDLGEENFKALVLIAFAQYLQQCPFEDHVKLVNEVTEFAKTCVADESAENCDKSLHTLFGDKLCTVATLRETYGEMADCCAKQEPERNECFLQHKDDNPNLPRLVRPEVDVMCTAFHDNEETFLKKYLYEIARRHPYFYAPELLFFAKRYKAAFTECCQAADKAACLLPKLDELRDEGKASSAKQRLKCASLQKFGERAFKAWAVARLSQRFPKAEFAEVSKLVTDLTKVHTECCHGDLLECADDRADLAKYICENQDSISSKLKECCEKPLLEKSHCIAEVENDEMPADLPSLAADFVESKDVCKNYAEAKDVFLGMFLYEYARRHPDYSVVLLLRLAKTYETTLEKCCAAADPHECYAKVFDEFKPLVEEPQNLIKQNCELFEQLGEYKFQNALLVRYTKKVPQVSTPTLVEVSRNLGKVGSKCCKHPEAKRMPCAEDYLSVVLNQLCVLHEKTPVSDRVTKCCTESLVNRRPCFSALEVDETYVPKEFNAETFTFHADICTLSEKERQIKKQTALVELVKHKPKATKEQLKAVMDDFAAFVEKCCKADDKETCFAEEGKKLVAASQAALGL
Protocol: In some cases drugs concentration was measured in albumin solutions with protein concentration 0.022 g/cm^3 in buffer or Fetal Bovine Serum was used with concentration of serum albumin in the range 0.0187 g/cm^3-0.022 g/cm^3.
The base plate was filled with the buffer of reference concentration 5×10^−6 M of drug, and the wells with albumin-drug solution, with constant concentration of albumin, but varying concentration of drug.
In this case the measuring Ag/AgCl electrode was inserted into the wells with albumin solution with decreasing fenfluramine concentrations, then increasing fenfluramine concentrations, i.e. forward and backward using the same wells. The base solution was buffer. The method allows measurements of fenfluramine from 5×10^−5 to 5×10^−2M.
If different concentrations of rimantadine in albumin solution were preliminary prepared, preequilibrated and then added into the wells (method 2), a gradient was 59.9 mV per 10 fold change in drug concentration, which is similar to that with a buffer solution.
Chlorpromazine test solutions were injected into the wells and the reference solution of 5×10^−6 M Chlorpromazine in the buffer was added into the base. […] This effect is similar to the lysis of biological membranes and is related to the surface active properties of chlorpromazine. It was observed also with several other psychotropic substances, including several antidepressants. Those of the drugs which induce lysis at elevated concentrations also have nonspecific liver toxicity.

[3] = Biomimetic membrane lysis (screen for nonspecific liver toxicity); settings: elevated drug concentration (chlorpromazine near 0.05 M, after some time)
[4] = bovine, fetal bovine serum, plasma or biological fluid
[5] = pH 7.4 buffer, pH 7.4, aqueous buffer
[6] = method 1: drug added directly into albumin solutions in the wells

SMILES | time taken to reach the maximum potential [1] | characteristic time of potential decrease due to transport of the drug ([2]; more acidic pH) | characteristic time of potential decrease due to transport of the drug ([2]; pH 8, higher drug concentrations (FIG. 6: 10^−3 M)) | solubility (Solubility; [4]) | solubility (Solubility; [5]) | potentials in buffer versus albumin solutions (drug binding property of albumin) (albumin; pH2, reference 5×10^−6 M drug in buffer) | slope of calibration curve (albumin; [6]) | time for the potential to reach the steady state (albumin; [6]) | gradient of calibration curve (albumin; method 2: drug in albumin solution prepared, preequilibrated, then added into wells) | membrane lysis / loss of transmembrane potential [3]
CCNC(C)Cc1cccc(C(F)(F)F)c1.Cl (racemic) [Fenfluramine Hydrochloride, (+/−)-N-ethyl-α-methyl-m-(trifluoromethyl) phenethylamine HCl] | less then a minute | ~100 s | ~20 s | ~10 mM | ~50 mM | – | – | – | – | –
CN(C)CCCN1c2ccccc2Sc2ccc(Cl)cc21 [Chlorpromazine Hydrochloride, 2-chloro-10-[3-dimethylaminopropyl] phenothiazine] | – | – | – | – | – | higher with buffer than with albumin solutions | – | – | – | –
CC(N)C12CC3CC(CC(C3)C1)C2.Cl (stereo not drawn) [Rimantadine Hydrochloride, 1-(1-Adamantyl)ethylamine hydrochloride] | – | – | – | ~10 mM | ~50 mM | – | 19.3 mV per 10 fold change in Rimantadine concentration | at least an hr | 59.9 mV per 10 fold change in drug concentration | did not result in the membrane lysis
